# Active and inactive are the calls of the source.
# Key:
# [1] = tested on: T-cell; experiment: inhibitors of CD8+ T cell–vesicle binding, dose response, mouse 2C CD8+ T cells, flow cytometry (AID 485284); type: functional
# [2] = target: T1, G-protein coupled receptor 55 (Homo sapiens, UniProt Q9Y2T6); experiment: GPR55 antagonists blocking LPI-driven arrestin recruitment, primary screen, imaging, U2OS, beta-arrestin-GFP, LPI agonist (AID 2013); type: functional;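 also: antagonist potency measured as reduced agonist-driven arrestin aggregation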
# [3] = target: Perilipin-1/ABHD5 (Homo sapiens, UniProt O60240+Q8WTS1); experiment: Luminescence-based biochemical high throughput dose response assay for inhibitors of the interaction of the lipase co-activator protein, abhydrolase domain containing 5 (ABHD5) with perilipin-1 (PLIN1) (2K validation set). [Related pubchem assays (depositor defined):AID493027, AID493057]
# [4] = target: 1-acylglycerol-3-phosphate O-acyltransferase ABHD5/Perilipin-5 (Homo sapiens, UniProt Q00G26+Q8WTS1); experiment: Luminescence-based biochemical high throughput dose response assay for inhibitors of the interaction of the lipase co-activator protein, abhydrolase domain containing 5 (ABHD5) with perilipin-5 (MLDP; PLIN5) (2K validation set). [Related pubchem assays (depositor defined):AID493035, AID493241]
# [5] = target: T2, Coagulation factor XII (Homo sapiens, UniProt P00748); experiment: Factor XIIa Dose Response Confirmation from Single Well HTS. [Related pubchem assays (depositor defined):AID701]; type: functional
# T2 sequence (P00748 whole entry): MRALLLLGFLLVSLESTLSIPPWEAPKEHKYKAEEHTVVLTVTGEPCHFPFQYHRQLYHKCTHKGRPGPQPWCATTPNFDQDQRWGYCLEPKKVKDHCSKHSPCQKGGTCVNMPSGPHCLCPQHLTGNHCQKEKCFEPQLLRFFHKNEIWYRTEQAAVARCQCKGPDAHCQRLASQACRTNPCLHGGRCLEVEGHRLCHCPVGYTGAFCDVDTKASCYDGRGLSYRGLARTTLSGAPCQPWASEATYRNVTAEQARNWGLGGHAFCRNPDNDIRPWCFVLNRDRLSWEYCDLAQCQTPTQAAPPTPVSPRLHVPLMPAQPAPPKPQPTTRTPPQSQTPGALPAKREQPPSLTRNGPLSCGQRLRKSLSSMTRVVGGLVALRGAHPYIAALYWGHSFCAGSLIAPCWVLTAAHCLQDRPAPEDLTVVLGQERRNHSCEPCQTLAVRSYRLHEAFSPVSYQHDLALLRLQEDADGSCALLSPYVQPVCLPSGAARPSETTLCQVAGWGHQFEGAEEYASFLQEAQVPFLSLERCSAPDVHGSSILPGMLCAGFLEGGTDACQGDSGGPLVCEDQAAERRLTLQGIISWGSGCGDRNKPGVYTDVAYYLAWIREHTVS
# [6] = target: T3, G-protein coupled receptor 35 (Homo sapiens, UniProt Q9HC97); experiment: GPR35 antagonists blocking zaprinast-driven arrestin recruitment, primary screen, imaging, U2OS, beta-arrestin-GFP, zaprinast agonist (AID 2058); type: functional;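 also: antagonist potency meaning inhibition of agonist-induced arrestin redistribution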
# [7] = target: T1, G-protein coupled receptor 55; experiment: SAR Analysis of Selective Antagonists of GPR55 using an Image-Based Assay - Set 3. [Related pubchem assays (depositor defined):AID2058, AID2079]; type: functional
# [8] = target: T3, G-protein coupled receptor 35; experiment: SAR Analysis for the identification of Selective Antagonists of ERK1/2 Activity in GPR35-Overexpressing U2OS Cells - Set 2. [Related pubchem assays (depositor defined):AID2058, AID2079]; type: functional, cell-based
# [9] = target: T3, G-protein coupled receptor 35; experiment: SAR analysis of Antagonists of the GPR35 Receptor using an Image-Based Assay - Set 5. [Related pubchem assays (depositor defined):AID2058, AID2079]; type: functional
# [10] = target: Beta-galactosidase (Escherichia coli, UniProt Q8VNN2); experiment: beta-galactosidase enzyme inhibitors and activators, dose response, artefact control for CCR6 antagonist project, biochemical, E. coli enzyme, set 3 (AID 504712); type: functional
# [11] = target: T4, Caspase-3 (Homo sapiens, UniProt P42574); experiment: procaspase-3 activators, dose response, biochemical, absorbance (AID 489014)
# T4 sequence (P42574 whole entry): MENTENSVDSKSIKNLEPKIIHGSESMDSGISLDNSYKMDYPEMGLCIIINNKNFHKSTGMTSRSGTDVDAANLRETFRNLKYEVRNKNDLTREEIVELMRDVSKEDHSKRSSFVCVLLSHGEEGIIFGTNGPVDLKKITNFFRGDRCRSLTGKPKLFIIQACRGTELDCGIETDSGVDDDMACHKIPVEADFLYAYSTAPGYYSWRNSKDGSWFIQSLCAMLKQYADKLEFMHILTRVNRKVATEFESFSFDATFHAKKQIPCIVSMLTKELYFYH
# [12] = target: T5, Endoribonuclease toxin MazF (Escherichia coli K-12, UniProt P0AE70); experiment: MazF toxin RNase activators, dose response, biochemical, fluorescence, single-stranded RNA substrate, uHTS hits (AID 588481); type: functional
# T5 sequence (P0AE70 whole entry): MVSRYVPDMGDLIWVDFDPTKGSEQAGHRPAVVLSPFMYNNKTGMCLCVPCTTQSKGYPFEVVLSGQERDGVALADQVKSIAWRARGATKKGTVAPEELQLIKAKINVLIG
# [13] = target: T6, Caspase-7 (Homo sapiens, UniProt P55210); experiment: procaspase-7 activators, dose response, counter-screen for procaspase-3 activator project, biochemical, absorbance (AID 489013)
# T6 sequence (P55210 whole entry): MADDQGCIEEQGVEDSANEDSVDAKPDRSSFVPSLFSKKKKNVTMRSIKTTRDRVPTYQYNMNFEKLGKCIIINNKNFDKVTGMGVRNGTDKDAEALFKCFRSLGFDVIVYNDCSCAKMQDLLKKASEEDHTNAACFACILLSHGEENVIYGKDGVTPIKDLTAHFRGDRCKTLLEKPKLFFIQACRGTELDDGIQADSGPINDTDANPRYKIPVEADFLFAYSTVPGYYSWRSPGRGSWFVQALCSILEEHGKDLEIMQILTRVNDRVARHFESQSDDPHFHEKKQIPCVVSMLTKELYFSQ
# [14] = target: T5, Endoribonuclease toxin MazF; experiment: fluorescent RNA oligo signal without MazF, dose response, counter-screen for MazEF activator project, biochemical, fluorescence, single-stranded RNase substrate (AID 588502); type: functional
# [15] = tested on: HEK293; experiment: cells; settings: Homo sapiens
# [16] = tested on: HEK293; experiment: cells; type: functional, cell-based; settings: Homo sapiens
# [17] = target: T7, Nucleotide-binding oligomerization domain-containing protein 2 (Homo sapiens, UniProt Q9HC29); experiment: PubChem AID 2334; type: functional
# [18] = tested on: HEK293; experiment: SAR analysis of compounds that are cytotoxic to HEK293 - Set 2. [Related pubchem assays (depositor defined):AID1575, AID1578, AID1849, AID2001, AID2333, AID2334, AID2335, AID2337, AID2800]; type: functional, cell-based; settings: Homo sapiens
# [19] = target: T7, Nucleotide-binding oligomerization domain-containing protein 2; experiment: NOD2 inhibitors, SAR follow-up, set 2 (AID 2475); type: functional
# [20] = tested on: Streptococcus; experiment: Group A Streptococcus viability loss, dose response, counter-screen for streptokinase expression inhibitor project, luminescence, BacTiterGlo (AID 1915); type: functional, organism-based;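 also: potency for reduction of bacterial viability or growth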
# [21] = Vero E6 cell cytotoxicity, dose response, cytotoxicity control for non-replicating M. tuberculosis project, secondary assay (AID 492998); type: functional, VeroE6; settings: Vero C1008
# [22] = cells; type: functional
# [23] = target: T8, Streptokinase A (Streptococcus pyogenes serotype M1, UniProt P10520); experiment: S. pyogenes streptokinase expression inhibitors, potency, dose response, plasminogen activation absorbance, OD405 (AID 1914); type: functional, Streptococcus pyogenes M1 GAS;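 also: secreted streptokinase activity via plasminogen activation per viability signal from cell pellet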
# T8 sequence (P10520 whole entry): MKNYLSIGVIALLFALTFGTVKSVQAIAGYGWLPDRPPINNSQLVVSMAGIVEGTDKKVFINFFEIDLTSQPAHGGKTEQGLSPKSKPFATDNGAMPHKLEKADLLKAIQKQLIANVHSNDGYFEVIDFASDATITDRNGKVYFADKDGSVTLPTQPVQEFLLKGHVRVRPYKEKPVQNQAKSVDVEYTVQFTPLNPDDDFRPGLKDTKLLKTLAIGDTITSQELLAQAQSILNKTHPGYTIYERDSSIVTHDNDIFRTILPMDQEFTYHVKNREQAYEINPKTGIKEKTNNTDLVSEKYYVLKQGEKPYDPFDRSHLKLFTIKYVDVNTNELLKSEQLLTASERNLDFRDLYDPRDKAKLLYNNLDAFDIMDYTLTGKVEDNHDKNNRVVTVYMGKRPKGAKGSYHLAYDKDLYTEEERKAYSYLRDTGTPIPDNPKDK
# [24] = THP-1 cell cytotoxicity, dose response, cytotoxicity control for non-replicating M. tuberculosis project (AID 489025); type: functional
# [25] = tested on: Streptococcus sp. 'group A'; experiment: growth inhibition of control SK(-) GAS strain, dose response, counter-screen for streptokinase expression inhibitor project, luminescence, kanamycin, BacTiterGlo, confirmation (AID 1900); type: functional, organism-based
# [26] = target: Tumor necrosis factor (Homo sapiens, UniProt P01375); experiment: TNFa-triggered NF-kB activation inhibitors, SAR follow-up, cell-based, revised (AID 2337); type: functional
# [27] = tested on: HEK293; experiment: NOD1 signaling inhibitors, primary screen, cell-based, luminescence, uHTS (AID 1578); type: functional; settings: Homo sapiens
# [28] = target: T7, Nucleotide-binding oligomerization domain-containing protein 2; experiment: NOD2 signaling inhibitors, cell-based, luminescence, uHTS, HEK293 (AID 1566); type: functional
# [29] = tested on: HEK293; experiment: NOD2 signaling inhibitors in MDP-stimulated cells, cell-based, uHTS, luminescence (AID 2001); type: functional; settings: Homo sapiens
# [30] = tested on: HEK293; experiment: cells; type: functional, cell-based; settings: Homo sapiens; remark: listed apart in the source
# [31] = tested on: HEK293; experiment: cells; type: functional, cell-based; settings: Homo sapiens; remark: listed apart in the source
# [32] = target: T9, Nucleotide-binding oligomerization domain-containing protein 1 (Homo sapiens, UniProt Q9Y239); experiment: NOD1 signaling inhibitors, SAR follow-up, revised (AID 2333); type: functional
# T9 sequence (Q9Y239 whole entry): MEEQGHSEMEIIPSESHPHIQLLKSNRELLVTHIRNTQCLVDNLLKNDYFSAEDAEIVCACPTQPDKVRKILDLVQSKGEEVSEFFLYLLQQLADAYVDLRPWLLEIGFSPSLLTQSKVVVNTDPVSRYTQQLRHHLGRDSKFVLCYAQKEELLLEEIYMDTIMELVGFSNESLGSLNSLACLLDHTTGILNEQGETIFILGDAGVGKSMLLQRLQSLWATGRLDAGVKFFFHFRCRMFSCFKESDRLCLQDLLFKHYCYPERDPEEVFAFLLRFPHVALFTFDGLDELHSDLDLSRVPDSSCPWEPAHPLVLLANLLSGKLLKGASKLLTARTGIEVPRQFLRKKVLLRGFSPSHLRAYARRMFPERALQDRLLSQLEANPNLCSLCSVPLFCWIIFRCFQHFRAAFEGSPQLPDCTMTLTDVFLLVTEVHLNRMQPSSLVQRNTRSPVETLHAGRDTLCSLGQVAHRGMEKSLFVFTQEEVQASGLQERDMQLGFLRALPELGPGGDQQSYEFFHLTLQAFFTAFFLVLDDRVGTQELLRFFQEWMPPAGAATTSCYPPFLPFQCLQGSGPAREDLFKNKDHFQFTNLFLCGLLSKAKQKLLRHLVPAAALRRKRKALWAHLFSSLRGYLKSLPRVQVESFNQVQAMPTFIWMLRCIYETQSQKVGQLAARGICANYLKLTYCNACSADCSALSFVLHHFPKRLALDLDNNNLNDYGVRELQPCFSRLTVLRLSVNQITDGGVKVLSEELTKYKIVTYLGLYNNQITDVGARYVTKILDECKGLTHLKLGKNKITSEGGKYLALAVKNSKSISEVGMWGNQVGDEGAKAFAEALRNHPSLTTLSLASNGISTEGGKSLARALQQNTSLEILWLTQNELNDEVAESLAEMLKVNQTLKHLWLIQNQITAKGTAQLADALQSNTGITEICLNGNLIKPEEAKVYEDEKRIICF
# [33] = HepG2 cell cytotoxicity, dose response, cytotoxicity control for non-replicating M. tuberculosis project (AID 489018); type: functional; settings: Mycobacterium tuberculosis
# T3 sequence (Q9HC97 whole entry): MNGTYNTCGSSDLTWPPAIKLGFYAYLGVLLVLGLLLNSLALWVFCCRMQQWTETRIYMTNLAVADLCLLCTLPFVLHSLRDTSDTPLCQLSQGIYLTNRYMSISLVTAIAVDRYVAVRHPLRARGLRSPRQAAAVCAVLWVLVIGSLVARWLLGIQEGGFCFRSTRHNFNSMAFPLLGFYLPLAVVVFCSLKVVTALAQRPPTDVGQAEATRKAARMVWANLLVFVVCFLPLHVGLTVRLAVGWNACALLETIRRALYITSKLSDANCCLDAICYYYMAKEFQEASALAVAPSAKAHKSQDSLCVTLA
# T7 sequence (Q9HC29 whole entry, the tested form may be a part): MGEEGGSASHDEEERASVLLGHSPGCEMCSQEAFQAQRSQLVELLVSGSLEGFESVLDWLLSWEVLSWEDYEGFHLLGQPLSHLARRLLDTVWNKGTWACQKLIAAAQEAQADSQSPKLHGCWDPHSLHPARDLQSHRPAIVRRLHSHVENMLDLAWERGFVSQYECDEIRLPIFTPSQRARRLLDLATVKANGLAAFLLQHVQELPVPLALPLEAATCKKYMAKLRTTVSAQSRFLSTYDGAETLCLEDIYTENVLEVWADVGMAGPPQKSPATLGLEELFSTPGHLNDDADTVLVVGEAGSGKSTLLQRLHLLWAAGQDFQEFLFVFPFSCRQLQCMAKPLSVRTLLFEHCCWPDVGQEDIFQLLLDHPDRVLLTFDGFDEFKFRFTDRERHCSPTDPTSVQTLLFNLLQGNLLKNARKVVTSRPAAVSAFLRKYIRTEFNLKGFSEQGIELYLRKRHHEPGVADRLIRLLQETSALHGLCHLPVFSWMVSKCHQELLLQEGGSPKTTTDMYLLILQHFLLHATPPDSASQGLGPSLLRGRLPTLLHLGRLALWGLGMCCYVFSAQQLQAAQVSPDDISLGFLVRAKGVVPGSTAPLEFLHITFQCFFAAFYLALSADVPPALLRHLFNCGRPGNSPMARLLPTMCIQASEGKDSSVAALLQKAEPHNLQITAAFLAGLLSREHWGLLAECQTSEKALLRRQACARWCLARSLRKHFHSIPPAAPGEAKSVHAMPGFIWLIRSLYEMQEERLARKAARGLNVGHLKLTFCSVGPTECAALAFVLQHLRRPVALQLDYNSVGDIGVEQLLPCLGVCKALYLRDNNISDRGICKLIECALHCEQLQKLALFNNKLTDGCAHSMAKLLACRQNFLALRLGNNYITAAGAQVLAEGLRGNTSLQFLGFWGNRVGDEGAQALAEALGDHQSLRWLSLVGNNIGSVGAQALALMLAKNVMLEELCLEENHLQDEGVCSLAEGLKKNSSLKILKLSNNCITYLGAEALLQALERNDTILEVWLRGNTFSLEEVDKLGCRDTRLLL
# Chain of Tumor necrosis factor (P01375 whole entry): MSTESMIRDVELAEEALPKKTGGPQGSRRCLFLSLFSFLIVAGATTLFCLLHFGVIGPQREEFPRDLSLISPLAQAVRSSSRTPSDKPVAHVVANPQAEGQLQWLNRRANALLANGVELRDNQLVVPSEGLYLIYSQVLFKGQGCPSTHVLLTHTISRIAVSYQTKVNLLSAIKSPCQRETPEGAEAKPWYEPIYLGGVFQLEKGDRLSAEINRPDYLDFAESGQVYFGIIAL
# T1 sequence (Q9Y2T6 whole entry, the tested form may be a part): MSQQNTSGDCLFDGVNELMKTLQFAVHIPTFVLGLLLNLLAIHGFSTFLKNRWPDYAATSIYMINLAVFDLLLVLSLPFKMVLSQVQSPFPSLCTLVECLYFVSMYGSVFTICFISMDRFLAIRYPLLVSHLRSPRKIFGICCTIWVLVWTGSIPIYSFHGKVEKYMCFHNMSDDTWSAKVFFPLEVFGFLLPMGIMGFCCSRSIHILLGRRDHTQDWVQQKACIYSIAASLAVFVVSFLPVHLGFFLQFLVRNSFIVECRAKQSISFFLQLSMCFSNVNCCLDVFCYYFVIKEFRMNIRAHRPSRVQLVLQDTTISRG
# Chain of Perilipin-1/ABHD5 (Q8WTS1 whole entry, the tested form may be a part): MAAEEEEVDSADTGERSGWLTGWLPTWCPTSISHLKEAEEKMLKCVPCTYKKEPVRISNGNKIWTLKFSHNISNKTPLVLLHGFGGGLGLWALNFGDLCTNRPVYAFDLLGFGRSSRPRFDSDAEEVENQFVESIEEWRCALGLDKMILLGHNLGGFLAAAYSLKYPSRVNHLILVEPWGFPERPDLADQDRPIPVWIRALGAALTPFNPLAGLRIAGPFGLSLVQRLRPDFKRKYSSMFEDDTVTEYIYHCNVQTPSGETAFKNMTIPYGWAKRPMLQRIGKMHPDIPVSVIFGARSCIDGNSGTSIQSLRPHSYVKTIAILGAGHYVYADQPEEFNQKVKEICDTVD
# Chain of Perilipin-1/ABHD5 (O60240 whole entry, the tested form may be a part): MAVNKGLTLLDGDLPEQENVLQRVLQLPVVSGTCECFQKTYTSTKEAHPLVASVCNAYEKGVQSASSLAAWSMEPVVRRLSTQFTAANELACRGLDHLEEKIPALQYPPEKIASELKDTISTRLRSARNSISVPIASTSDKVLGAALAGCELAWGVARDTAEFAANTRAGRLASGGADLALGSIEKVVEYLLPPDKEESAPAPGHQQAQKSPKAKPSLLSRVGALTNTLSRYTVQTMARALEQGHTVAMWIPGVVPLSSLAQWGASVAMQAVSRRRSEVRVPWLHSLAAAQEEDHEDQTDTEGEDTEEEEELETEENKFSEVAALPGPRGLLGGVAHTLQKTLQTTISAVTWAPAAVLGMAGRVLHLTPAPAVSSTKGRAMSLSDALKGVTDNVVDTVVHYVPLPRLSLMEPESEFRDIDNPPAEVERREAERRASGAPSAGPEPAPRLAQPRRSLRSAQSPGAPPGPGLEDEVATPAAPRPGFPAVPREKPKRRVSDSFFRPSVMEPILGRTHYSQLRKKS
# Chain of Beta-galactosidase (Q8VNN2 whole entry): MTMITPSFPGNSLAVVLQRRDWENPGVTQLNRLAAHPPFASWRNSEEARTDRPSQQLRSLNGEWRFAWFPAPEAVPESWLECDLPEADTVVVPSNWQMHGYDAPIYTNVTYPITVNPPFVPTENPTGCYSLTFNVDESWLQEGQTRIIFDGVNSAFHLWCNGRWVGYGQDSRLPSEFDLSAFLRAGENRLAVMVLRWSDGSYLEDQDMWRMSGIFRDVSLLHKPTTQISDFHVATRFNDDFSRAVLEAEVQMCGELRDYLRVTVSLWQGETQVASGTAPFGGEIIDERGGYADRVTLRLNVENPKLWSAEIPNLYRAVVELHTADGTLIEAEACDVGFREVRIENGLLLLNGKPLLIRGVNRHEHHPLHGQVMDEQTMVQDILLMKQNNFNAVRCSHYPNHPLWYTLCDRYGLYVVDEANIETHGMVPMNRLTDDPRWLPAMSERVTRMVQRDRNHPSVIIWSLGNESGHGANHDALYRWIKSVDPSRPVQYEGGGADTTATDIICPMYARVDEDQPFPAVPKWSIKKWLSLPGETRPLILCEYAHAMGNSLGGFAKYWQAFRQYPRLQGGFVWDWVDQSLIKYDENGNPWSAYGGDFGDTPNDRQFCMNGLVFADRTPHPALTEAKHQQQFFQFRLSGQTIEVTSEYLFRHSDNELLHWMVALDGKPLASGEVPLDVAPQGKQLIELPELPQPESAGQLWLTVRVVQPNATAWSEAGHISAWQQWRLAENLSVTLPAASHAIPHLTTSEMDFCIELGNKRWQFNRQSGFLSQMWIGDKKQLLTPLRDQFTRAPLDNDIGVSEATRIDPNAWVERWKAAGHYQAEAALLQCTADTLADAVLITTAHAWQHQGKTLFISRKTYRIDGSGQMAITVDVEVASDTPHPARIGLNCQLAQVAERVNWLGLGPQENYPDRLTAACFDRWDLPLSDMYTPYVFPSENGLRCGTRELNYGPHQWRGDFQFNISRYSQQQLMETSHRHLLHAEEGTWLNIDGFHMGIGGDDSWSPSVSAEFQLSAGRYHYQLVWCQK
# Chain of 1-acylglycerol-3-phosphate O-acyltransferase ABHD5/Perilipin-5 (Q00G26 whole entry, the tested form may be a part): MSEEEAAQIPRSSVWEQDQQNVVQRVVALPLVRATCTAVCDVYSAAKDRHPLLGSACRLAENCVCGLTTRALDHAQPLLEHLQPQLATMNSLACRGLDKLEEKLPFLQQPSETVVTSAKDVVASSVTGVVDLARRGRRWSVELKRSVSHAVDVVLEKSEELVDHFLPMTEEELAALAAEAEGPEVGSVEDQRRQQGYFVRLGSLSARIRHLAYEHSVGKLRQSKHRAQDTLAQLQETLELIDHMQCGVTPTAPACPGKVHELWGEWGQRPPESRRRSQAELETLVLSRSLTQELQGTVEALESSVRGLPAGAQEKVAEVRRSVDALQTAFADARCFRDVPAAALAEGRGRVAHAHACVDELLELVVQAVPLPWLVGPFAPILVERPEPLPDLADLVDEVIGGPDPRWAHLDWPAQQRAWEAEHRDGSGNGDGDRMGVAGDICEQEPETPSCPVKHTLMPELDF
# Chain of 1-acylglycerol-3-phosphate O-acyltransferase ABHD5/Perilipin-5 (Q8WTS1 whole entry, the tested form may be a part): as the sequence (Q8WTS1 whole entry, the tested form may be a part) above
smiles,measurement,setting,value
COc1ccccc1CNC(=O)COc1ccc(C)cc1,EC50,[1],22.1 µM (active)
CCSc1nnc2nc3c(c(O)n12)C1(CCCCC1)Cc1ccccc1-3,IC50,[2],8.6 µM (active)
O=C(/C=C/c1ccc2c(c1)OCO2)c1ccccn1,IC50,[3],6.85 µM (active)
same,IC50,[4],6.96 µM (active)
Cc1cc(NC(=O)C(C)C)ncc1NC(=O)Cc1ccccc1,IC50,[5],> 50 µM (inactive)
CNC(=S)N/N=C/c1c(C(=O)OC)cnn1-c1ccc(F)cc1F,IC50,[6],1.11 µM (active)
same,IC50,[7],> 32 µM (inactive)
same,IC50,[8],2.29 µM (active)
same,IC50,[9],2.49 µM (active)
O=C(NC(=S)N1CCN(c2ccc(C(F)(F)F)cc2[N+](=O)[O-])CC1)c1cccs1,IC50,[10],> 66.6 µM (inactive)
COc1ccccc1Nc1nc2c(C)cccc2cc1C#N,EC50,[11],3.54 µM (active)
same,EC50,[12],> 99 µM (inactive)
same,EC50,[13],9.49 µM (active)
same,EC50,[14],7.39 µM (active)
CCC(=O)Nc1nc2ccccc2n1Cc1ccccc1Cl,IC50,[15],> 20 µM (inactive)
same,IC50,[16],> 20 µM (inactive)
same,IC50,[17],> 20 µM (inactive)
same,IC50,[18],> 20 µM (inactive)
same,IC50,[19],5.24 µM (active)
same,EC50,[20],105 µM (active)
same,CC50,[21],10.9 µM (active)
same,IC50,[22],0.21 µM (active)
same,EC50,[23],> 150 µM (not active)
same,CC50,[24],29.7 µM (active)
same,EC50,[25],6.44 µM (active)
same,IC50,[26],> 20 µM (inactive)
same,EC50,[27],> 20 µM (inactive)
same,EC50,[28],> 20 µM (inactive)
same,IC50,[29],3.8 µM (active)
same,IC50,[30],> 20 µM (inactive)
same,IC50,[31],> 20 µM (inactive)
same,IC50,[32],> 20 µM (inactive)
same,CC50,[33],> 20 µM (active)

# Source: ChEMBL document CHEMBL1201862, “PubChem BioAssay data set” (2004)
